Literature values, collected in patent US20220047724A1, “NOVEL TRICARBOCYANINE-CYCLODEXTRIN(S) CONJUGATES AND USE THEREOF” (CYANAGEN S.R.L., priority 2014, published 2022).
Like-named read-outs stand apart in the source and are kept apart here.

How the values were obtained:
[1] = Sigma-Aldrich Product No. H-107, vendor data

Substance | Water solubility [1] [g/100 mL] | Toxicity (rabbits; rabbit, in vivo) | Toxicity (mice; mouse, in vivo) | Toxicity (rabbits; rabbits) | Toxicity (mice; mice)
2-hydroxypropyl-β-cyclodextrin [HβCD] | 45 | non-toxic | non-toxic |  | 
2-hydroxypropyl-γ-cyclodextrin [HγCD] |  |  |  | non-toxic | non-toxic
